Experimental data taken from patent US8492559B2, “Substituted indole compounds” (Gruenenthal GmbH, priority 2009, dated 2013).

Molecular target: T1, B1R receptor of the rat (rB1R) (Rattus norvegicus, UniProt P97583)
T1 construct: expressed in transfected cells; host or cells: CHO K1 cells
T1 sequence (P97583 1-337): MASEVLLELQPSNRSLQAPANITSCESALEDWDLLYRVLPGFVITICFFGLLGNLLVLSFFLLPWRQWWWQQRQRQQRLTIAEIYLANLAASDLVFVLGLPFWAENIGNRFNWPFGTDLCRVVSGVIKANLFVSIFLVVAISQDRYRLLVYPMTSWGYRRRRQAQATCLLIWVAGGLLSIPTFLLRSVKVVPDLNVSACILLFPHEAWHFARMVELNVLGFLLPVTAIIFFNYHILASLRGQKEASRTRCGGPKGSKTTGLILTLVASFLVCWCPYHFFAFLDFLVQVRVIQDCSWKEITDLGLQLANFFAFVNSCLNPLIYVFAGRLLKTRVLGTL
Test: Functional investigation on the bradykinin 1 receptor (B1R), FLIPR Ca2+ assay, rB1R cells
Assay type: cell-based
Conditions: CHO-K1, 10 μM test substance; CHO K1 cells with rat B1R; agonist Des-Arg9 bradykinin; % of maximum achievable inhibition; read-out: B1R antagonism, rat [10 μM] % inhibition
Procedure: The indication in % activation is based on the Ca^2+ signal after addition of Lys-Des-[…] bradykinin (0.5 nM) or Des-[…] bradykinin (100 nM). Antagonists lead to a suppression of the Ca^2+ influx following administration of the agonist. The % inhibition in comparison with the maximum achievable inhibition is indicated. […] According to this assay, the Ca^2+ inflow through the channel is quantified with the aid of a Ca^2+-sensitive dye (Fluo-4 type, Molecular Probes Europe BV, Leiden, Netherlands) in a fluorescent imaging plate reader (FLIPR, Molecular Devices, Sunnyvale, USA). […] For functional investigations these cells are plated-out onto black 96-well plates with a clear base (BD Biosciences, Heidelberg, Germany or Greiner, Frickenhausen, Germany) in a density of 20,000-35,000 cells/well. Overnight the cells are incubated at 37° C. and 5% CO2 in culture medium (hB1R cells: Ham's Nutrient Mixture F12, Gibco Invitrogen GmbH, Karlsruhe, Germany or DMEM, Sigma-Aldrich, Taufkirchen, Germany; rB1R cells: D-MEM/F12, Gibco Invitrogen, Karlsruhe, Germany) with 10 vol. % FBS (foetal bovine serum, Gibco Invitrogen GmbH, Karlsruhe, Germany or PAN Biotech GmbH, Aidenbach, Germany). On the following day the cells are loaded with 2.13 μM Fluo-4 (Molecular Probes Europe BV, Leiden, Netherlands) in HBSS buffer (Hank's buffered saline solution, Gibco Invitrogen GmbH, Karlsruhe, Germany) with 2.5 mM probenecid (Sigma-Aldrich, Taufkirchen, Germany) and 10 mM HEPES (Sigma-Aldrich, Taufkirchen, Germany) for 60 min at 37° C. […] Sigma-Aldrich, Taufkirchen, Germany), 5.6 mM glucose and 0.05% gelatine (Merck KGaA, Darmstadt, Germany) is added. After a further incubation of 20 minutes at room temperature, the plates are inserted into the FLIPR for Ca^2+ measurement. Alternatively they are washed with buffer A (15 mM HEPES, 80 mM NaCl, 5 mM KCl, 1.2 mM CaCl2, 0.7 mM MgSO4, 2 g/l glucose, 2.5 mM probenecid) and loaded with buffer A with added 2.5 μM Fluo-4 and 0.025% Pluronic F127 (Sigma-Aldrich, Taufkirchen, Germany). The cells are then washed twice with buffer A and incubated for 30 minutes with buffer A, which additionally contains 0.05% BSA and 0.05% gelatine, at room temperature and then used for Ca^2+ measurement in the FLIPR. The Ca^2+-dependent fluorescence is measured here before and after addition of substances (λex=488 nm, λem=540 nm). The quantification is performed by measuring the highest fluorescence intensity (FC, fluorescence counts) over time. The FLIPR protocol comprises two additions of substance. […] Lys-Des-[…] bradykinin>=50 nM; rB1R: […] Antagonists lead to a suppression of the Ca^2+ inflow. The % inhibition in comparison with the maximum achievable inhibition is calculated. The substances are added in varying concentrations in order to determine the IC50 value. Double or triple determinations (n=2 or n=3) are performed and these are repeated in at least one further independent experiment (N>=2).

Row | SMILES | inhibition at 10 µM
1 | COc1cc(C)c(S(=O)(=O)Nc2ccc3ccn(CCC(=O)NCCN4CCC(c5cccs5)(N(C)C)CC4)c3c2)c(C)c1 [G_CC-22, N-[2-(4-Dimethylamino-4-thiophen-2-yl-piperidin-1-yl)-ethyl]-3-[6-[[(4-methoxy-2,6-dimethyl-phenyl)sulfonyl]amino]-1H-indol-1-yl]-propionamide] | 59%
2 | COc1cc(C)c(S(=O)(=O)Nc2ccc3ccn(CCC(=O)NCCC4CCN(c5ccncc5)CC4)c3c2)c(C)c1 [G_CC-23, 3-[6-[[(4-Methoxy-2,6-dimethyl-phenyl)sulfonyl]amino]-1H-indol-1-yl]-N-[2-(1-pyridin-4-yl-piperidin-4-yl)-ethyl]-propionamide] | 63%
3 | Cc1cc(S(=O)(=O)Nc2ccc3ccn(CC(=O)NCCC4CCN(c5ccncc5)CC4)c3c2)c(C)cc1Cl [G_CC-24, 2-[6-[[(4-Chloro-2,5-dimethyl-phenyl)sulfonyl]amino]-1H-indol-1-yl]-N-[2-(1-pyridin-4-yl-piperidin-4-yl)-ethyl]-acetamide] | 89%
4 | CN(CCCN1CCC(c2cccs2)(N(C)C)CC1)C(=O)Cn1ccc2cccc(NS(=O)(=O)c3cccc4ccccc34)c21 [G_CC-25, N-[3-(4-Dimethylamino-4-thiophen-2-yl-piperidin-1-yl)-propyl]-N-methyl-2-[7-[(naphthalen-1-ylsulfonyl)amino]-1H-indol-1-yl]-acetamide] | 58%
5 | Cc1cc(S(=O)(=O)Nc2cccc3ccn(CC(=O)N(C)CCCN4CCC(c5cccs5)(N(C)C)CC4)c23)c(C)cc1Cl [G_CC-26, 2-[7-[[(4-Chloro-2,5-dimethyl-phenyl)sulfonyl]amino]-1H-indol-1-yl]-N-[3-(4-dimethylamino-4-thiophen-2-yl-piperidin-1-yl)-propyl]-N-methyl-acetamide] | 81%
6 | Cc1cc(S(=O)(=O)Nc2cccc3ccn(CC(=O)NCCN4CCC(c5cccs5)(N(C)C)CC4)c23)c(C)cc1Cl [G_CC-27, 2-[7-[[(4-Chloro-2,5-dimethyl-phenyl)sulfonyl]amino]-1H-indol-1-yl]-N-[2-(4-dimethylamino-4-thiophen-2-yl-piperidin-1-yl)-ethyl]-acetamide] | 56%
7 | Cc1cc(S(=O)(=O)Nc2cccc3ccn(CC(=O)NCCC4CCN(c5ccncc5)CC4)c23)c(C)cc1Cl [G_CC-28, 2-[7-[[(4-Chloro-2,5-dimethyl-phenyl)sulfonyl]amino]-1H-indol-1-yl]-N-[2-(1-pyridin-4-yl-piperidin-4-yl)-ethyl]-acetamide] | 82%
8 | COc1cc(C)c(S(=O)(=O)Nc2ccc3ccn(CC(=O)N(C)CCCN4CCC(c5cccs5)(N(C)C)CC4)c3c2)c(C)c1 [G_CC-29, N-[3-(4-Dimethylamino-4-thiophen-2-yl-piperidin-1-yl)-propyl]-2-[6-[[(4-methoxy-2,6-dimethyl-phenyl)sulfonyl]amino]-1H-indol-1-yl]-N-methyl-acetamide] | 92%
9 | COc1cc(C)c(S(=O)(=O)Nc2ccc3ccn(CC(=O)NCCN4CCC(c5cccs5)(N(C)C)CC4)c3c2)c(C)c1 [G_CC-30, N-[2-(4-Dimethylamino-4-thiophen-2-yl-piperidin-1-yl)-ethyl]-2-[6-[[(4-methoxy-2,6-dimethyl-phenyl)sulfonyl]amino]-1H-indol-1-yl]-acetamide] | 53%
10 | COc1cc(C)c(S(=O)(=O)Nc2cccc3ccn(CC(=O)N4CCC5(CC4)C(=O)N(C)CC5c4ccc(F)cc4)c23)c(C)c1 (centres unmarked) [G_CC-31, N-[1-[2-[1-(4-Fluorophenyl)-3-methyl-4-oxo-3,8-diazaspiro[4.5]decan-8-yl]-2-oxo-ethyl]-1H-indol-7-yl]-4-methoxy-2,6-dimethyl-benzenesulfonic acid amide] | 91%
11 | COc1cc(C)c(S(=O)(=O)Nc2ccc3ccn(CC(=O)N4CC5CC4CN5Cc4ccc(F)cc4)c3c2)c(C)c1 (centres unmarked) [G_CC-33, N-[1-[2-[2-[(4-Fluorophenyl)-methyl]-2,5-diazabicyclo[2.2.1]heptan-5-yl]-2-oxo-ethyl]-1H-indol-6-yl]-4-methoxy-2,6-dimethyl-benzenesulfonic acid amide] | 71%
12 | COc1cc(C)c(S(=O)(=O)Nc2cccc3ccn(CC(=O)N4CC5CC4CN5Cc4ccncc4)c23)c(C)c1 (centres unmarked) [G_CC-34, 4-Methoxy-2,6-dimethyl-N-[1-[2-oxo-2-[2-(pyridin-4-yl-methyl)-2,5-diazabicyclo[2.2.1]heptan-5-yl]-ethyl]-1H-indol-7-yl]-benzenesulfonic acid amide] | 58%
13 | COc1cc(C)c(S(=O)(=O)Nc2ccc3ccn(CCC(=O)N4CCC5(CC4)CCN(c4ccncc4)CC5)c3c2)c(C)c1 [G_CC-35, 4-Methoxy-2,6-dimethyl-N-[1-[3-oxo-3-(3-pyridin-4-yl-3,9-diazaspiro[5.5]undecan-9-yl)-propyl]-1H-indol-6-yl]-benzenesulfonic acid amide] | 72%
14 | Cc1cc(S(=O)(=O)Nc2ccc3ccn(CC(=O)N4CCC5(CC4)CCN(c4ccncc4)CC5)c3c2)c(C)cc1Cl [G_CC-36, 4-Chloro-2,5-dimethyl-N-[1-[2-oxo-2-(3-pyridin-4-yl-3,9-diazaspiro[5.5]undecan-9-yl)-ethyl]-1H-indol-6-yl]-benzenesulfonic acid amide] | 63%
15 | O=C(Cn1ccc2ccc(NS(=O)(=O)c3ccccc3C(F)(F)F)cc21)N1CCC2(CC1)CCN(c1ccncc1)CC2 [G_CC-37, N-[1-[2-Oxo-2-(3-pyridin-4-yl-3,9-diazaspiro[5.5]undecan-9-yl)-ethyl]-1H-indol-6-yl]-2-(trifluoromethyl)-benzenesulfonic acid amide] | 91%
16 | O=C(Cn1ccc2cccc(NS(=O)(=O)c3cccc4ccccc34)c21)N1CCC2(CC1)CCN(c1ccncc1)CC2 [G_CC-38, N-[1-[2-Oxo-2-(3-pyridin-4-yl-3,9-diazaspiro[5.5]undecan-9-yl)-ethyl]-1H-indol-7-yl]-naphthalene-1-sulfonic acid amide] | 96%
17 | Cc1cc(S(=O)(=O)Nc2cccc3ccn(CC(=O)N4CCC5(CC4)CCN(c4ccncc4)CC5)c23)c(C)cc1Cl [G_CC-39, 4-Chloro-2,5-dimethyl-N-[1-[2-oxo-2-(3-pyridin-4-yl-3,9-diazaspiro[5.5]undecan-9-yl)-ethyl]-1H-indol-7-yl]-benzenesulfonic acid amide] | 95%
18 | COc1cc(C)c(S(=O)(=O)Nc2cccc3ccn(CCC(=O)N4CCN(C5CCN(C)CC5)CC4)c23)c(C)c1 [G_CC-40, 4-Methoxy-2,6-dimethyl-N-[1-[3-[4-(1-methyl-piperidin-4-yl)-piperazin-1-yl]-3-oxo-propyl]-1H-indol-7-yl]-benzenesulfonic acid amide] | 86%
19 | COc1cc(C)c(S(=O)(=O)Nc2cccc3ccn(CCC(=O)N4CCC(CCN5CCCC5)CC4)c23)c(C)c1 [G_CC-41, 4-Methoxy-2,6-dimethyl-N-[1-[3-oxo-3-[4-(2-pyrrolidin-1-yl-ethyl)-piperidin-1-yl]-propyl]-1H-indol-7-yl]-benzenesulfonic acid amide] | 76%
20 | COc1cc(C)c(S(=O)(=O)Nc2cccc3ccn(CCC(=O)N4CCC(N5CCN(C)CC5)CC4)c23)c(C)c1 [G_CC-42, 4-Methoxy-2,6-dimethyl-N-[1-[3-[4-(4-methyl-piperazin-1-yl)-piperidin-1-yl]-3-oxo-propyl]-1H-indol-7-yl]-benzenesulfonic acid amide] | 66%
